ChEMBL document CHEMBL4373717, “Coumarin-containing hybrids and their anticancer activities” (Eur J Med Chem, 2019)
≈ marks a conversion by molar mass, not a printed value. One block for each compound: values may come before it.

How the values were obtained:
[1] = test system: MCF7; assay: Cytotoxicity against human MCF7 cells assessed as reduction in cell viability after 48 hrs by MTT assay; assay type: functional, cell-based; details: MCF7, 48 h
[2] = test system: NCI-H157; assay: Cytotoxicity against human NCI-H157 cells assessed as reduction in cell viability after 48 hrs by SRB assay; assay type: functional, cell-based; details: NCI-H157, 48 h
[3] = test system: BHK-21; assay: Cytotoxicity against BHK21 cells assessed as reduction in cell viability after 48 hrs by SRB assay; assay type: cell-based; details: Mesocricetus auratus, BHK-21, 48 h
[4] = test system: HeLa; assay: Anticancer activity against human HeLa cells by MTT assay; assay type: functional, cell-based
[5] = test system: A549; assay: Anticancer activity against human A549 cells by MTT assay; assay type: functional, cell-based
[6] = test system: K562; assay: Anticancer activity against human K562 cells by MTT assay; assay type: functional, cell-based
[7] = test system: MDA-MB-231; assay: Anticancer activity against human MDA-MB-231 cells by MTT assay; assay type: functional, cell-based
[8] = test system: DU-145; assay: Cytotoxicity against human DU145 cells assessed as reduction in cell viability by SRB assay; assay type: functional, cell-based
[9] = test system: HeLa; assay: Cytotoxicity against human HeLa cells assessed as reduction in cell viability by SRB assay; assay type: functional, cell-based
[10] = test system: A549; assay: Cytotoxicity against human A549 cells assessed as reduction in cell viability by SRB assay; assay type: functional, cell-based
[11] = test system: SK-OV-3; assay: Cytotoxicity against human SKOV3 cells assessed as reduction in cell viability by SRB assay; assay type: functional, cell-based
[12] = test system: MCF7; assay: Cytotoxicity against human MCF7 cells assessed as reduction in cell viability by SRB assay; assay type: functional, cell-based
[13] = test system: HepG2; assay: Cytotoxicity against human HepG2 cells assessed as reduction in cell viability by SRB assay; assay type: functional, cell-based
[14] = Cytotoxicity against human MCF7/DX cells assessed as reduction in cell viability by SRB assay; assay type: functional, cell-based
[15] = test system: HepG2; assay: Cytotoxicity against human HepG2 cells assessed as reduction in cell viability; assay type: functional, cell-based
[16] = test system: DLD-1; assay: Cytotoxicity against human DLD1 cells assessed as reduction in cell viability; assay type: functional, cell-based
[17] = test system: HeLa; assay: Antiproliferative activity against human HeLa cells by MTT assay; assay type: functional, cell-based

Compound: O=Cc1c(-c2cc3cc(Br)ccc3oc2=O)[nH]c2ccccc12
- IC50 [1]: 5.5 to 100 µM

Compound: O=c1oc2ccccc2cc1-c1nnc2n1N=C(c1ccc([N+](=O)[O-])cc1)CS2
- IC50 [2]: 1.01 to 5.72 µM
- IC50 [3]: 1.01 to 5.72 µM

- IC50 [4]: 0.16 to 1.12 µg/mL (≈ 0.303 to 2.12 µM)
- IC50 [5]: 0.16 to 1.12 µg/mL (≈ 0.303 to 2.12 µM)
- IC50 [6]: 0.16 to 1.12 µg/mL (≈ 0.303 to 2.12 µM)
- IC50 [7]: 0.16 to 1.12 µg/mL (≈ 0.303 to 2.12 µM)
Compound: Cc1nn(-c2ccccc2)c(=O)n1-n1c(-c2cc3ccccc3oc2=O)cs/c1=N\c1ccc(Cl)cc1

Compound: O=c1oc2ccccc2cc1-c1nnc2n1N=C(c1ccc(F)cc1)CS2
- IC50 [2]: 1.01 to 5.72 µM
- IC50 [3]: 1.01 to 5.72 µM

Compound: O=c1oc2ccccc2cc1-c1nnc2n1N=C(c1ccc(Cl)cc1)CS2
- IC50 [2]: 1.01 to 5.72 µM
- IC50 [3]: 1.01 to 5.72 µM

Compound: Cc1cc(=O)oc2cc(OCCOCCN3C(=O)C(=O)c4ccccc43)ccc12
- IC50 [8]: 10.3 to 50 µM
- IC50 [9]: 10.3 to 50 µM
- IC50 [10]: 10.3 to 50 µM
- IC50 [11]: 10.3 to 50 µM
- IC50 [12]: 10.3 to 50 µM
- IC50 [13]: 10.3 to 50 µM
- IC50 [14]: 10.3 to 50 µM

Compound: Cc1cc(-c2cc3cc(Br)ccc3oc2=O)n(-c2nc(-c3ccc(Cl)cc3)cs2)n1
- IC50 [1]: 4.03 to 31.5 µM

Compound: Cc1ccc2c(c1)C(=O)C(=O)N2CCOCCOc1ccc2c(C)cc(=O)oc2c1
- IC50 [8]: 10.3 to 50 µM
- IC50 [9]: 10.3 to 50 µM
- IC50 [10]: 10.3 to 50 µM
- IC50 [11]: 10.3 to 50 µM
- IC50 [12]: 10.3 to 50 µM
- IC50 [13]: 10.3 to 50 µM
- IC50 [14]: 10.3 to 50 µM

Compound: Cc1cc(=O)oc2cc(OCCOCCN3C(=O)/C(=N\O)c4cc(F)ccc43)ccc12
- IC50 [8]: 10.3 to 50 µM
- IC50 [9]: 10.3 to 50 µM
- IC50 [10]: 10.3 to 50 µM
- IC50 [11]: 10.3 to 50 µM
- IC50 [12]: 10.3 to 50 µM
- IC50 [13]: 10.3 to 50 µM
- IC50 [14]: 10.3 to 50 µM

- IC50 [4]: 0.16 to 1.12 µg/mL (≈ 0.324 to 2.27 µM)
- IC50 [5]: 0.16 to 1.12 µg/mL (≈ 0.324 to 2.27 µM)
- IC50 [6]: 0.16 to 1.12 µg/mL (≈ 0.324 to 2.27 µM)
- IC50 [7]: 0.16 to 1.12 µg/mL (≈ 0.324 to 2.27 µM)
Compound: Cc1nn(-c2ccccc2)c(=O)n1-n1c(-c2cc3ccccc3oc2=O)cs/c1=N\c1ccccc1

Compound: O=C(c1cnc(Nc2ccc(F)cc2)s1)c1cc2ccccc2oc1=O
- IC50 [15]: 5.66 to 100 µg/mL (≈ 15.4 to 273 µM)
- IC50 [16]: 5.66 to 100 µg/mL (≈ 15.4 to 273 µM)

Compound: O=C(c1cnc(Nc2ccc(Br)cc2)s1)c1cc2ccccc2oc1=O
- IC50 [15]: 5.66 to 100 µg/mL (≈ 13.2 to 234 µM)
- IC50 [16]: 5.66 to 100 µg/mL (≈ 13.2 to 234 µM)

Compound: O=c1oc2ccccc2cc1C1=Nn2c(nnc2-c2cc3ccccc3oc2=O)SC1
- IC50 [2]: 1.01 to 5.72 µM
- IC50 [3]: 1.01 to 5.72 µM

Compound: CCNc1ncc(C(=O)c2cc3ccccc3oc2=O)s1
- IC50 [15]: 5.66 to 100 µg/mL (≈ 18.8 to 333 µM)
- IC50 [16]: 5.66 to 100 µg/mL (≈ 18.8 to 333 µM)

- IC50 [4]: 0.16 to 1.12 µg/mL (≈ 0.306 to 2.14 µM)
- IC50 [5]: 0.16 to 1.12 µg/mL (≈ 0.306 to 2.14 µM)
- IC50 [6]: 0.16 to 1.12 µg/mL (≈ 0.306 to 2.14 µM)
- IC50 [7]: 0.16 to 1.12 µg/mL (≈ 0.306 to 2.14 µM)
Compound: COc1ccc(/N=c2\scc(-c3cc4ccccc4oc3=O)n2-n2c(C)nn(-c3ccccc3)c2=O)cc1

Compound: Cc1ccc(C2=Nn3c(nnc3-c3cc4ccccc4oc3=O)SC2)cc1
- IC50 [2]: 1.01 to 5.72 µM
- IC50 [3]: 1.01 to 5.72 µM

Compound: Cc1cc(-c2cc3cc(Br)ccc3oc2=O)n(-c2nc(-c3ccccc3)cs2)n1
- IC50 [1]: 4.03 to 31.5 µM

- IC50 [17]: 0.0091 to 0.569 µM
Compound: COC(=O)c1sc(N/N=C(\C)c2cc3cc(Cl)ccc3oc2=O)nc1C

Compound: O=c1oc2ccccc2cc1-c1nnc2n1N=C(c1ccc(Cl)c(Cl)c1)CS2
- IC50 [2]: 1.73 µM
- IC50 [3]: 1.39 µM

Compound: Cc1cc(=O)oc2cc(OCCOCCN3C(=O)/C(=N\O)c4cc(Cl)ccc43)ccc12
- IC50 [8]: 10.3 to 50 µM
- IC50 [9]: 10.3 to 50 µM
- IC50 [10]: 10.3 to 50 µM
- IC50 [11]: 10.3 to 50 µM
- IC50 [12]: 10.3 to 50 µM
- IC50 [13]: 10.3 to 50 µM
- IC50 [14]: 10.3 to 50 µM

Compound: COc1ccc(/C(C)=N/Nc2ncc(C(=O)c3cc4ccccc4oc3=O)s2)cc1
- EC50 [15]: 3.7 to 9.54 µg/mL (≈ 8.82 to 22.7 µM)
- EC50 [16]: 3.7 to 9.54 µg/mL (≈ 8.82 to 22.7 µM)

- IC50 [4]: 0.16 to 1.12 µg/mL (≈ 0.289 to 2.02 µM)
- IC50 [5]: 0.16 to 1.12 µg/mL (≈ 0.289 to 2.02 µM)
- IC50 [6]: 0.16 to 1.12 µg/mL (≈ 0.289 to 2.02 µM)
- IC50 [7]: 0.16 to 1.12 µg/mL (≈ 0.289 to 2.02 µM)
Compound: COc1ccc(/N=c2\scc(-c3cc4ccccc4oc3=O)n2-n2c(C)nn(-c3ccc(OC)cc3)c2=O)cc1

Compound: O=C(O)c1c(-c2cc3cc(Cl)ccc3oc2=O)[nH]c2ccccc12
- IC50 [1]: 5.5 to 100 µM

Compound: O=c1oc2ccccc2cc1-c1nnc2n1N=C(c1ccc(-c3ccccc3)cc1)CS2
- IC50 [2]: 1.01 to 5.72 µM
- IC50 [3]: 1.01 to 5.72 µM

- IC50 [4]: 0.16 to 1.12 µg/mL (≈ 0.298 to 2.08 µM)
- IC50 [5]: 0.16 to 1.12 µg/mL (≈ 0.298 to 2.08 µM)
- IC50 [6]: 0.16 to 1.12 µg/mL (≈ 0.298 to 2.08 µM)
- IC50 [7]: 0.16 to 1.12 µg/mL (≈ 0.298 to 2.08 µM)
Compound: COc1ccc(/N=c2\scc(-c3cc4ccccc4oc3=O)n2-n2c(C)nn(-c3ccc(C)cc3)c2=O)cc1

Compound: COc1ccc(-c2csc(-n3nc(C)cc3-c3cc4ccccc4oc3=O)n2)cc1
- IC50 [1]: 4.03 to 31.5 µM

Compound: Cc1cc(-c2cc3ccccc3oc2=O)n(-c2nc(-c3ccc(Br)cc3)cs2)n1
- IC50 [1]: 4.03 to 31.5 µM

- IC50 [4]: 0.16 to 1.12 µg/mL (≈ 0.266 to 1.86 µM)
- IC50 [5]: 0.16 to 1.12 µg/mL (≈ 0.266 to 1.86 µM)
- IC50 [6]: 0.16 to 1.12 µg/mL (≈ 0.266 to 1.86 µM)
- IC50 [7]: 0.16 to 1.12 µg/mL (≈ 0.266 to 1.86 µM)
Compound: COc1ccc(/N=c2\scc(-c3cc4ccccc4oc3=O)n2-n2c(C)nn(-c3ccc(Br)cc3)c2=O)cc1
